From PubChem BioAssay AID1602 (NINDS Approved Drug Screening Program, 2009)
Results filed as inconclusive are left out. Peptide text beside a SMILES is read from it.

Test system: mutant SOD1 toxicity cell model, protection read-out
Experiment: cell protection against mutant SOD1 damage (AID 1602)

Row | Structure (SMILES) | EC50
1 | CC[N+]1(C)CCCC(OC(=O)C(O)(c2ccccc2)c2ccccc2)C1 (centres undefined) | 50 µM
2 | CC(CCc1ccccc1)NCC(O)c1ccc(O)c(C(N)=O)c1 (centres undefined) | 50 µM
3 | CC(=O)N[C@@H](CS)C(=O)O | 50 µM
4 | CNCCc1ccccn1 | 50 µM
5 | CCN1CCN(C(=O)NC(C(=O)NC2C(=O)N3C(C(=O)O)=C(CSc4nnnn4C)CSC23)c2ccc(O)cc2)C(=O)C1=O (centres undefined) | 50 µM
6 | NC[C@@H]1O[C@H](O[C@@H]2[C@@H](CO)OC(O[C@@H]3[C@@H](O)[C@H](N)C[C@H](N)[C@H]3OC3O[C@H](CN)[C@@H](O)[C@H](O)[C@H]3N)[C@@H]2O)[C@H](N)[C@@H](O)[C@@H]1O (some centres undefined) | 50 µM
7 | NCCCCC(N)C(=O)NC(Cc1ccc(O)cc1)C(=O)NC(CCCCN)C(=O)O (stereo not drawn) (H-Lys-Tyr-Lys-OH; configuration not given here) | 75 µM
8 | COc1c2occc2c(OC)c2c(=O)cc(C)oc12 | 75 µM
9 | NCCCC(=O)O | 50 µM
10 | O=C1NCC2(CCN(CCc3ccccc3)CC2)O1 | 50 µM
11 | CN(C)CCOC(=O)C(c1ccccc1)C1(O)CCCC1 (centres undefined) | 50 µM
12 | CC(C)CC1NC(=O)CNC1=O (centres undefined) | 50 µM
13 | Cn1nnnc1SCC1=C(C(=O)O)N2C(=O)C(NC(=O)C(OC=O)c3ccccc3)C2SC1 (centres undefined) | 50 µM
14 | C[C@H](CCC(=O)O)[C@H]1CCC2C3C(=O)CC4CC(=O)CC[C@]4(C)C3CC(=O)[C@@]21C (some centres undefined) | 50 µM
15 | CC(=O)OCC1=C(C(=O)O)N2C(=O)[C@@H](NC(=O)CSc3ccncc3)[C@H]2SC1 | 50 µM
16 | NC(N)=O | 75 µM
17 | CC(COc1ccccc1)NC(C)[C@H](O)c1ccc(O)cc1 (some centres undefined) | 50 µM

Row | Structure (SMILES) | EC50
18 | CN[C@H](CC(=O)O)C(=O)O | 50 µM
19 | Cc1ccc(C(=O)C(C)CN2CCCCC2)cc1 (centres undefined) | 50 µM
20 | Nc1ccc(S(=O)(=O)Nc2nccs2)cc1 | 50 µM
21 | CN1C2CCC1CC(OC(=O)C(CO)c1ccccc1)C2 (centres undefined) | 50 µM
22 | CC(=O)Nc1cc([As](=O)(O)O)ccc1O | 50 µM
23 | Cc1ccc(/C(=C\CN2CCCC2)c2ccccn2)cc1 | 50 µM
24 | O=C(O)c1ccccc1OP(=O)(O)O | 75 µM
25 | CCn1cc(C(=O)O)c(=O)c2cc(F)c(N3CCNCC3)cc21 | 75 µM
26 | Nc1ccc(S(N)(=O)=O)cc1 | 50 µM
27 | C[C@H](CS)C(=O)N1CCC[C@H]1C(=O)O | 75 µM
28 | NC(N)=NC(N)=Nc1ccccc1 | 50 µM
29 | c1ccc2c(CC3=NCCN3)cccc2c1 | 50 µM
30 | CCN1C[C@@]2(COC)C3[C@@H](OC)[C@H]4[C@@H]1[C@]3(C(OC)C[C@H]2O)C1C[C@@]2(O)[C@H](OC(=O)c3ccccc3)C1[C@]4(OC(C)=O)[C@@H](O)[C@@H]2OC (some centres undefined) | 50 µM
31 | CO/N=C(/C(=O)NC1C(=O)N2C(C(=O)O)=C(COC(N)=O)CSC12)c1ccco1 (centres undefined) | 50 µM
32 | CO/N=C(\C(=O)NC1C(=O)N2C(C(=O)O)=C(CSc3nc(=O)c(O)nn3C)CS[C@H]12)c1csc(N)n1 (some centres undefined) | 75 µM
33 | COC(=O)C1[C@H]2C[C@H]3c4[nH]c5ccccc5c4CCN3C[C@@H]2CC[C@@H]1O (some centres undefined) | 50 µM
34 | CC(C(=O)O)c1cccc(C(=O)c2ccccc2)c1 (centres undefined) | 75 µM
